Literature values in US9272037B2, “Method to treat premature ejaculation in humans” (priority 2005, dated 2016).

Legend:
[1] = target: μ-opiate receptors (Homo sapiens, UniProt P35372)
[2] = for accumulation during multiple dose treatment: multiple dose treatment with tramadol
[3] = system: child; conditions: inadvertent administration of 4 mg/kg to a child
[4] = single oral dose of tramadol 100 mg
[5] = system: humans
[6] = target: phosphodiesterase type 5 (PDE5) (Homo sapiens, UniProt O76074); conditions: PDE5 versus PDE6
[7] = oral, Viagra formulation

Sequence of μ-opiate receptors (P35372 whole entry): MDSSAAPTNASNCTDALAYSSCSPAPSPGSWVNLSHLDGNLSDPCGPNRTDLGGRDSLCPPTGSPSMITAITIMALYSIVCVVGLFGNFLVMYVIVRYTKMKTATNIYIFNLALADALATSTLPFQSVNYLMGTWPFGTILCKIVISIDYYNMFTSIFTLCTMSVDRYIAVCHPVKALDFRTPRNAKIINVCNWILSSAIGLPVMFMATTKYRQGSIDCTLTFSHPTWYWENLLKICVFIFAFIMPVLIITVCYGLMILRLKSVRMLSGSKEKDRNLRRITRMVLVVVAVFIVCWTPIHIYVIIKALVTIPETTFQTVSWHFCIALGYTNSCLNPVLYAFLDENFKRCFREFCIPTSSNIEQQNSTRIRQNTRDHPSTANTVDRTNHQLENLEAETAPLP

COc1cccc(C2(O)CCCCC2CN(C)C)c1 (racemic) [tramadol, (+/−)-trans (RR,SS)-2-[(di-methylamino)methyl]-1-(3-methoxyphenyl)cyclohexanol]
affinity for μ-opiate receptors, fold less than codeine ([1]; versus codeine): 10 fold | affinity for μ-opiate receptors, fold less than d-propoxyphene ([1]; versus d-propoxyphene): 100 fold | affinity for μ-opiate receptors relative to dextromethorphan ([1]; versus dextromethorphan): equivalent to dextromethorphan | affinity for μ-opiate receptors, fold less than morphine ([1]; versus morphine): 6,000 fold | accumulation during multiple dose treatment [2]: approximately 2 fold | time to peak serum concentrations ([2]; oral administration): ≤ 2 h | adverse event after overdose [3]: seizure activity | duration of the analgesic effect [4]: about 6 hours

CN(C)C[C@H]1CCCC[C@]1(O)c1cccc(O)c1 [O-desmethyltramadol (M1), O-desmethyltramadol]
accumulation during multiple dose treatment [2]: approximately 2 fold | half-life ([2]; single oral dose of 100 mg tramadol): 9 h

Cn1c(=O)c2c(ncn2C)n(C)c1=O [caffeine, 3,7-dihydro-1,3,7-trimethyl-1H-purine-2,6-dione]
time to maximal plasma concentrations (after oral, rectal or parenteral administration): ≤ 1 h | half-life in plasma (in vivo): 3 to 7 h | amount needed to affect sleep significantly [5]: more than 200 mg

CCCc1nn(C)c2c(=O)[nH]c(-c3cc(S(=O)(=O)N4CCN(C)CC4)ccc3OCC)nc12 [sildenafil, 1-[[3-(6,7-dihydro-1-methyl-7-oxo-3-propyl-1H-pyrazolo[4,3-d]pyrimidin-5-yl)-4-ethoxyphenyl]sulfonyl]-4-methyl piperazine]
potency for PDE5 compared to PDE6 [6]: about 10 fold | absolute bioavailability [7]: about 40%
